Measurements published in ChEMBL document CHEMBL1129164, “Molecular design, chemical synthesis and biological studies of novel enediynes related to dynemicin a” (Bioorg Med Chem Lett, 1996).
≈ marks a conversion by molar mass, not a printed value.

What was measured:
Assay type in all cases: functional, cell-based
MOLT-4 = assay: In vitro growth inhibition of Molt-4 (leukemia cell line) human tumor cells.
SK-BR-3 = assay: In vitro growth inhibition of SK-BR-3 (breast cancer cell line) human tumor cells.
HepG2 = assay: In vitro growth inhibition of Hep G2 ([…] line) human tumor cells.
COLO 205 = assay: In vitro growth inhibition of COLO 205 (colon cell line) human tumor cells.

SMILES	IC50 (MOLT-4)	IC50 (SK-BR-3)	IC50 (HepG2)	IC50 (COLO 205)
C#CC1[C@H]2O[C@H]2c2ccccc2N1C(=O)OCC (stereo partly drawn)	66.5 µg/mL (≈ 274 µM)	> 100 µg/mL	> 100 µg/mL	> 100 µg/mL
CCOC(=O)N1c2ccccc2[C@@H]2O[C@@H]2C1C#Cc1ccccc1C#CCS(=O)(=O)c1ccccc1 (stereo partly drawn)	4.64 µg/mL (≈ 9.33 µM)	9.23 µg/mL (≈ 18.6 µM)	8.91 µg/mL (≈ 17.9 µM)	9.59 µg/mL (≈ 19.3 µM)
CCOC(=O)N1c2ccccc2[C@@H](S(=O)(=O)c2ccccc2)[C@H](O)C1C#Cc1ccccc1C#CCS(=O)(=O)c1ccccc1 (stereo partly drawn)	0.73 µg/mL (≈ 1.14 µM)	6.26 µg/mL (≈ 9.79 µM)	3.75 µg/mL (≈ 5.86 µM)	5.33 µg/mL (≈ 8.33 µM)
CCOC(=O)N1c2ccccc2C(=O)CC1C#Cc1ccccc1C#CCS(=O)(=O)c1ccccc1 (stereo not drawn)	7.26 µg/mL (≈ 14.6 µM)	53.6 µg/mL (≈ 108 µM)	70 µg/mL (≈ 141 µM)	50.1 µg/mL (≈ 101 µM)

The next lines start with the values.

IC50 (MOLT-4)	IC50 (SK-BR-3)	IC50 (HepG2)	IC50 (COLO 205)	SMILES
5.63 µg/mL (≈ 12.6 µM)	43.9 µg/mL (≈ 98 µM)	50.2 µg/mL (≈ 112 µM)	53 µg/mL (≈ 119 µM)	CCOC(=O)N1c2ccccc2C(=O)CC1C#C/C=C\C#CCS(=O)(=O)c1ccccc1 (stereo not drawn)
5.5 µg/mL (≈ 12.3 µM)	19.5 µg/mL (≈ 43.5 µM)	9.01 µg/mL (≈ 20.1 µM)	26 µg/mL (≈ 58 µM)	CCOC(=O)N1c2ccccc2[C@@H]2O[C@@H]2C1C#C/C=C\C#CCS(=O)(=O)c1ccccc1 (stereo partly drawn)
10.2 µg/mL (≈ 21.9 µM)	46.7 µg/mL (≈ 100 µM)	57.8 µg/mL (≈ 124 µM)	49.7 µg/mL (≈ 107 µM)	CCOC(=O)N1c2ccccc2[C@@H](O)[C@H](O)C1C#C/C=C\C#CCS(=O)(=O)c1ccccc1 (stereo partly drawn)
